From patent US20240148723A1, “MYCOBACTERIUM TUBERCULOSIS COMPOSITIONS AND METHODS” (priority 2021, published 2024)
Converted amounts (≈) assume the structure as drawn.

What follows are compounds tested on M. tuberculosis. Details: pH 6.8.
Type: cell-based, Mycobacterium tuberculosis

Structure (SMILES) | MIC in the media 7H9 [µg/mL] | MIC in the media L-Ala [µg/mL] | MIC in the media SBA [µg/mL] | MIC in the media SLac [µg/mL]
CCOC(=O)CCCCCCCCCCCCC1C=CCC1 (stereo not drawn) [compound 38010] | ≥ 30.85 | 3.86 (≈ 12.5 µM) | 1.93 (≈ 6.26 µM) | 1.93 (≈ 6.26 µM)
COc1ccc(-c2coc3cc(O)cc(O)c3c2=O)cc1 [compound 123538] | ≥ 113.70 | 7.11 (≈ 25 µM) | 7.11 (≈ 25 µM) | 0.45 (≈ 1.58 µM)
C=CC(=O)Nc1cc(Nc2nccc(-c3cn(C)c4ccccc34)n2)c(OC)cc1N(C)CCN(C)C [compound 779217] | ≥ 12.49 | 3.12 (≈ 6.24 µM) | 3.12 (≈ 6.24 µM) | 1.60 (≈ 3.2 µM)
O=C1C[C@@H](c2ccccc2)Oc2cc(O)cc(O)c21 [compound 43318] | ≥ 101.70 | 6.36 (≈ 24.8 µM) | 6.36 (≈ 24.8 µM) | 0.41 (≈ 1.6 µM)
NC(=O)c1cccnc1 [compound 13128] | ≥ 800 | 400 (≈ 3280 µM) | 400 (≈ 3280 µM) | 400 (≈ 3280 µM)
c1ccc(Sc2ncnc3ccccc23)cc1 [compound 51331] | ≥ 23.83 | 11.92 (≈ 50 µM) | 11.92 (≈ 50 µM) | 2.98 (≈ 12.5 µM)
C=C1C(=O)OC2CC1C(OC(C)=O)C/C(C)=C/CC/C(C)=C\CCC2(C)O (stereo not drawn) [compound 36437] | ≥ 37.65 | 9.41 (≈ 25 µM) | 4.71 (≈ 12.5 µM) | 2.35 (≈ 6.24 µM)
CCCCc1oc2ccccc2c1C(=O)c1cc(I)c(OCCN(CC)CC)c(I)c1.Cl [compound 85442] | ≥ 8.52 | 4.26 | 2.18 | 1.09
Cc1c(Cl)ccc2c(C(=O)O)cc(-c3ccccc3)nc12 [compound 40306] | ≥ 29.77 | 7.44 (≈ 25 µM) | 7.44 (≈ 25 µM) | 3.72 (≈ 12.5 µM)
CCOC(CNCc1cc(C)c2[nH]c3ccccc3c2c1C)OCC [compound 79486] | ≥ 17.03 | 8.51 (≈ 25 µM) | 8.51 (≈ 25 µM) | 2.13 (≈ 6.26 µM)
CCC(C)c1occ2c(O)c(C(=O)O)c(=O)cc-2c1C (stereo not drawn) [compound 114344] | ≥ 110.51 | 27.63 (≈ 100 µM) | 6.91 (≈ 25 µM) | 1.73 (≈ 6.26 µM)
O=Nc1ccc(O)c2ncccc12 [compound 3852] | ≥ 4.36 | 2.18 (≈ 12.5 µM) | 2.18 (≈ 12.5 µM) | 1.09 (≈ 6.26 µM)
Cl.O=C(c1ccc(OCCN2CCCCC2)cc1)c1c(-c2ccc(O)cc2)sc2cc(O)ccc12 [compound 747974] | ≥ 47.36 | 2.96 | 2.96 | 2.96
CC1(C)CCSC(C=Cc2ccccc2)=N1 [compound 150954] | ≥ 11.57 | 5.78 (≈ 25 µM) | 2.89 (≈ 12.5 µM) | 2.89 (≈ 12.5 µM)
COc1cc2c(cc1O)C[C@H]1c3c(cc4c(c3-2)OCO4)CCN1C [compound 785178] | ≥ 16.27 | 8.13 (≈ 25 µM) | 4.07 (≈ 12.5 µM) | 4.07 (≈ 12.5 µM)
Cc1ccc2ccc(C#N)cc2c1O [compound 128068] | ≥ 18.32 | 9.16 (≈ 50 µM) | 9.16 (≈ 50 µM) | 2.29 (≈ 12.5 µM)
CCCCOC(=O)c1ccc(N)cc1 [compound 128464] | ≥ 800 | 0.06 (≈ 0.31 µM) | 0.06 (≈ 0.31 µM) | 0.06 (≈ 0.31 µM)
COc1ccc2nc3cc(Cl)ccc3c(Nc3cc(C(C)C)c(O)cc3C)c2c1 [compound 13051] | ≥ 20.35 | 2.54 (≈ 6.24 µM) | 2.54 (≈ 6.24 µM) | 1.30 (≈ 3.19 µM)
CCOC(=O)c1ccc(N)cc1 [compound 41531] | ≥ 800 | 0.26 (≈ 1.57 µM) | 0.26 (≈ 1.57 µM) | 0.26 (≈ 1.57 µM)
NC(=O)c1ccc([N+](=O)[O-])cc1 [compound 2902] | ≥ 66.44 | 16.61 (≈ 100 µM) | 33.22 (≈ 200 µM) | 8.31 (≈ 50 µM)
NC(=O)c1cnccn1 [compound 14911] | ≥ 800 | 200 (≈ 1620 µM) | 100 (≈ 812 µM) | 200 (≈ 1620 µM)
